Converted amounts (≈) assume the structure as drawn.
Assays:
Type in all cases: cell-based
HSV-1 = assay: Plaque Reduction Test for Herpes Simplex Virus 1 (strain SC16) in MRC-5 cells; conditions: Human alphaherpesvirus 1, MRC5
Description: (§1) MRC-5 cells were grown to confluence in 24 well multi-dishes (well diameter=1.5 cm). The drained cell monolayers were each infected with approximately 50 infectious particles of herpes simplex virus 1 (HSV-1; strain SC16) or herpes simplex virus 2 (HSV-2; strain MS) in 100 μl of phosphate-buffered saline. The virus was adsorbed for 1 hour at room temperature. After adsorption, residual inoculum was removed from each well and replaced with 0.5 ml of Eagle's MEM containing 5% newborn calf serum and 0.9% agarose (A37). Once the agarose had set, dilutions of the test compound, which had been prepared in Eagle's MEM (containing 5% newborn calf serum), were added, each well receiving 0.5 ml of liquid overlay. The test compound was diluted to give the following series of concentrations: 200, 60, 20, 6 . . . 0.06 μg/ml; final concentrations in the assay ranged, therefore, between 100 μg/ml and 0.03 μg/ml. The infected cultures were incubated at 37° C. in a humidified atmosphere of 5% CO2 until plaques were clearly visible (usually 1 day).
(§2) Cultures from 1 and 2 were fixed in formal saline, the agarose overlays were carefully washed off, and then the cell monolayers were stained with carbol fuchsin. A stereo microscope was used to count plaques. The IC50 (concentration of drug which inhibits the number of plaques formed by 50% relative to the number of plaques observed in virus control monolayers) of the test compound was calculated. In addition, the monolayers were examined for evidence of drug-induced cytotoxicity; the minimum concentration at which cytotoxicity occurs was recorded.

VZV = assay: Plaque Reduction Test for Varicella-Zoster Virus (Ellen strain) in MRC-5 cells; conditions: Human alphaherpesvirus 3, MRC5
Description: as §1, with “varicella zoster” for “herpes simplex”, “(VZV; Ellen strain)” for “1 (HSV-1; strain SC16) or herpes simplex virus 2 (HSV-2; strain MS)”, “heat-inactivated foetal” for “newborn”, “(5 or 6 days).” for “(usually 1 day).”
as §2

[1] = Drug-induced cytotoxicity for the MRC-5 cell monolayers in the CMV test; conditions: human, mrc-5 cells, read-out: concentration at which cytotoxicity was noted
Description: MRC-5 cells were grown to confluence in 24 well multi-dishes (well diameter=1.5 cm). The drained cell monolayers were each infected with approximately 50 infectious particles of cytomegalovirus (CMV; AD-169 strain) in 100 μl of phosphate-buffered saline. The virus was adsorbed for 1 hour at room temperature. After adsorption, residual inoculum was removed from each well and replaced with 1 ml of Eagle's MEM containing 10% heat inactivated foetal calf serum and 0.9% agarose (A37). Once the agarose had set, dilutions of the test compound, which had been prepared in Eagle's MEM (containing 10% heat-inactivated calf serum), were added, each well receiving 1 ml of liquid overlay. The test compound was diluted to give the following series of concentrations: 200, 60, 20, 6 . . . 0.06 μg/ml; final concentrations in the assay range, therefore, between 100 μg/ml and 0.03 μg/ml. The infected cultures were incubated at 37° C. in a humidified atmosphere containing 5% CO2 until plaques were clearly visible (about 12 days). The cultures are fixed in formol saline, the agarose overlays were carefully washed off, and then the cell monolayers were stained with carbol fuchsin. A stereo microscope was used to count plaques. […] In addition, the monolayers were examined for evidence of drug-induced cytotoxicity; the minimum concentration at which cytotoxicity occurs was recorded.

FIV = assay: Test for Feline Immunodeficiency Virus (FIV Glasgow 8) in Crandell Feline Kidney cells; conditions: read-out: MIC (minimum concentration of drug inhibiting syncitial production)
Description: (§3) Drug stocks were diluted to the appropriate concentration, in medium (e.g. 10 mg/ml to 200 μg/ml). 150 μl of each drug was dispersed in triplicate, across the top row of a microtitre plate (150 μl of media for virus and cell control, vc and cc). 100 μl of medium was dispersed into all other wells. The wells were serially diluted moving down the plate, removing 50 μl from each well and transferring to the next row. 50 μl was discarded from the bottom wells.
(§4) Trypsinisation was carried out from a confluent cell monolayer of Crandell Feline Kidney cells, in 10% trypsin, followed by resuspension in media at 1×10^6 per ml, ensuring that a single cell suspension is achieved. (Media: 90% 1×RPMI, 25 mM hepes buffer; 10% Foetal calf serum; 2% Glutamine; 2% penecillin/streptomycin.)
(§5) FIV Glasgow 8 virus was diluted to 4× the required virus challenge in medium (40 TCID50 /ml). The virus infected medium was mixed with an equal volume of cell suspension, 100 μl of which was aliquoted into each well of the drug plate, except cell control. 100 μl of cell suspension at 5×10^4 per ml was added to the latter. This gives a final cell concentration of 2.5×10^4 per ml, and drug range 100-0.03 μg/ml. The plates were incubated at 37° C., 5% CO2 in an air humidified incabator for 11-14 days. The cells were fixed by immersing the plates in formoli saline (10% formaldehyde; 10% 1.5M NaCl; 80% water) for 1 hour minimum. The cells were stained with 10% crystal violet for 15 minutes.
(§6) The assay was scored by looking for presence of syncitia and, virus induced cytopathic effect in the cell monolayers, under a microscope. Results are given as the minimum concentration of drug inhibiting syncitial production, minimum inhibitory concentration, MIC.

[2] = Cytotoxicity for the cell monolayers in the FIV test; conditions: cat, crandell feline kidney cells, no cytotoxicity noted with concentrations up to this value, read-out: cytotoxicity for the cell monolayers
Description: as §3, §4, §5, §6

## Nc1nc2c(ncn2OCC/C=C/P(=O)(O)O)c(=O)[nH]1 [Example 1, (E)-9-(4-phosphonobut-3-enyloxy)guanine]
HSV-1
  IC50: < 3 mg/L
VZV
  IC50: < 3 mg/L
[1]
  MCC: 10 µg/mL
FIV
  MIC: 0.01 mg/L (≈ 0.0332 µM)
[2]
  MCC: > 100 µg/mL

Reference: patent US5356886A, “Antiviral phosphono-alken derivatives of purines” (Beecham Group p.l.c., priority 1990, dated 1994)
